The values below come from US8653095B2, “Small molecules with antimalarial activity” (Radix Pharmaceuticals, Inc., priority 2011, dated 2014).

Read-outs that look alike come from different tables or passages of the source.

The subject of series [1] is rodent P. berghei. The note with it: for MCureD (minimum curative dose): rodent P. berghei. As to the method: Antimalarial potency was measured by determination of the MCD (minimum clearance dose), a commonly used efficacy measurement. The primary therapeutic indices, which were obtained by using the MCDs as the effective parameters, were calculated. A secondary therapeutic indices measure of antimalarial potency was determined by use of the dose for the MCureD (minimum curative dose).

The subject of series [2] is Liver stage of P. yoelii yoelii. The experiment in a line: In vitro liver-stage antimalarial efficacy evaluation. The note with it: Plasmodium yoelii. It counts as cell-based. As to the method:
In Vitro Liver-Stage Antimalarial Efficacy Evaluation. Any new desirable antimalarial drug should be broad spectrum: it should be active against both the blood stage and the liver stage of the parasite. New compounds were assessed on the Plasmodium yoelii liver stage in vitro. The liver stage of P. yoelii is a parasite of rodent extensively used as an experimental model for studying the initial phase of the malaria infection.

The subject of series [3] is P. berghei NK-65. The experiment in a line: In vivo efficacy in Swiss mice infected with P. berghei. The conditions noted are these: Plasmodium berghei, 96 h; P. berghei NK-65, Swiss mice, oral once daily for 4 days; read-out: ED50.
Series [4] relates to P. falciparum African NF54 strain. The experiment in a line: In vivo efficacy in immunocompromised BXN mice infected with P. falciparum NF54. The note with it: Plasmodium falciparum, 96 h, oral once daily for 4 days. An excerpt: (§1) Antimalarial efficacy data was obtained by evaluating new compounds in two rodent models: (I) Swiss mice infected with rodent malaria strain P. berghei; (II) Immunocompromised BXN mice infected with either the sensitive P. falciparum African NF54 strain or the multi-drug resistant P. falciparum Thailand T24 strain.

Series [5] concerns multi-drug resistant P. falciparum Thailand T24 strain. The experiment in a line: In vivo efficacy in immunocompromised BXN mice infected with P. falciparum T24. The conditions noted are these: Plasmodium falciparum, 96 h, oral once daily for 4 days.
Description: as §1

The subject of series [6] is P. falciparum PH3. The experiment in a line: In vitro blood stage antimalarial efficacy, [3H]hypoxanthine uptake, strain PH3. The note with it: Plasmodium falciparum. It counts as cell-based. As to the method: (§2) In Vitro Blood Stage Antimalarial Efficacy Evaluation. New compounds were tested against a panel of strains of P. falciparum.
(§3) Test compounds were initially dissolved in DMSO and diluted 400 fold in RPMI 1640 culture medium supplemented with 25 mM Hepes, 32 mM NaHCO3 and 10% Albumax I (Gibco, NY). These solutions were subsequently serially diluted two-fold with a Beckman Biomek® 1000 Robot (Fullerton, Calif.) over 11 different concentrations. The parasites were exposed to serial dilutions of each compound for 48 hrs and incubated at 37° C. with 5% O2, 5% CO2 and 90% N2 prior to the addition of [^3H]hypoxanthine. After a further incubation of 18 hrs, parasite DNA was harvested from each microtiter well using Packard Filtermate™ 196 Harvester (Meriden, Conn.) onto glass filters. Uptake of [^3H]hypoxanthine was measured with a Packard TopCount Liquid Scintillation Counter (Packard Instrument Co.).

The subject of series [7] is P. falciparum 3D7. Nature of the series: In vitro blood stage antimalarial efficacy, [3H]hypoxanthine uptake, strain 3D7. It counts as cell-based. The note with it: Plasmodium falciparum. As to the method: as §2, §3
The test system of series [8] is P. falciparum DD2. The experiment in a line: In vitro blood stage antimalarial efficacy, [3H]hypoxanthine uptake, strain DD2. The format is cell-based. The note with it: Plasmodium falciparum. As to the method:
as §2, §3

For series [9], the system named is P. falciparum TM6. The experiment in a line: In vitro blood stage antimalarial efficacy, [3H]hypoxanthine uptake, strain TM6. The format is cell-based. The note with it: Plasmodium falciparum. As to the method: as §2, §3
Series [10] relates to P. falciparum K1. The experiment in a line: In vitro blood stage antimalarial efficacy, [3H]hypoxanthine uptake, strain K1. It counts as cell-based. The conditions noted are these: Plasmodium falciparum. As to the method: as §2, §3
In series [11] the test system is P. falciparum TM4. Nature of the series: In vitro blood stage antimalarial efficacy, [3H]hypoxanthine uptake, strain TM4. It counts as cell-based. The note with it: Plasmodium falciparum. As to the method:
as §2, §3

In series [12] the test system is P. falciparum V1S. The experiment in a line: microbe, parasite or virus in culture. It counts as cell-based. The note with it: Plasmodium falciparum. As to the method: as §2, §3
Series [13] deals with Plasmodium cynomolgi. The experiment in a line: Radical curative activity in relapsed Rhesus monkeys. The format is in vivo. The note with it: CQ alone 10 mg/kg/day for 7 days, no drug 2. The source says:
Compounds with antihypnozoite activity will delay the relapse or radically cure the infection. […] Relapse was expected in the control group. Relapse in the treated group indicates failure of the test compounds. […] After standard treatment, blood smears were monitored daily for 4 consecutive days of negative results and 2 times weekly for 2 weeks.

Setting [14] is: Sprague-Dawley, rat, in vivo, po.

In series [1] (setting [14]), `OC(c1cc(C(F)(F)F)nc2c(C(F)(F)F)cccc12)C1CCCCN1` (stereo not shown) [Mefloquine] displayed a Primary therapeutic index of 60 and a Secondary therapeutic index of 15. In addition, the “MCureD (minimum curative dose)” value in series [1] (administered orally) was found to be 40.5 mg/kg. For the same compound, the “MTD (maximum tolerated dose)” value (Sprague-Dawley, rat, in vivo, po, 2 weeks) amounted to 600 mg/kg.

`O=C1C(O)=C([C@H]2CC[C@H](c3ccc(Cl)cc3)CC2)C(=O)c2ccccc21` [Atovaquone, reference compound] yielded an IC50 in series [2] of 57 nM.

Take `C[C@H]1[C@@H](O)O[C@@H]2O[C@@]3(C)CC[C@H]4[C@H](C)CC[C@@H]1[C@@]24OO3` [Dihydroartemisinin, reference compound]: the ED50 in series [3] stood at 0.56 mg/kg; in series [4] it was 1.1 mg/kg; in series [5] it was 1.2 mg/kg.

On to `CCN(CC)CCCC(C)Nc1ccnc2cc(Cl)ccc12` (stereo not shown) [Chloroquine, reference compound], for which the IC50 in series [6] was 33.4 ± 9.1 nM; in series [7], 9.7 ± 3.4 nM; in series [8], 45.8 ± 10.2 nM; in series [9] it was 96.4 ± 6.9 nM; in series [10], 166 ± 19.3 nM; in series [11], 115 ± 12.7 nM. Moreover, the IC50 in series [12] was found to be 152 ± 14.1 nM. Also, in series [1] (administered orally), the “MCureD (minimum curative dose)” value is listed as “None”. Besides, in series [13], the “Results (radical curative test)” value is recorded as “relapse”. The “Days post-treatment (relapse)” value in series [13] (one value per monkey) amounted to 9 days. Moreover, the “MTD (maximum tolerated dose)” value (rats, administered orally (intragastric), observed 2 weeks) stood at 240 mg/kg.

For the compound `CCN(CC)Cc1cc(Nc2ccnc3cc(Cl)ccc23)ccc1O` [Amodiaquine, reference compound], the IC50 turned out to be 15.9 ± 3.2 nM in [6] (read-out: IC50); 4.9 ± 1.8 nM in series [7] (read-out: IC50); 9.1 ± 1.2 nM in [8] (read-out: IC50); 7.5 ± 2.4 nM in series [9] (read-out: IC50); 21.2 ± 2.1 nM in series [10] (read-out: IC50); 15.2 ± 2.6 nM in [11] (read-out: IC50). The IC50 in [12] is 8.7 ± 2.5 nM.

For the compound `C[C@H]1[C@H](OC(=O)CCC(=O)O)O[C@@H]2O[C@@]3(C)CC[C@H]4[C@H](C)CC[C@@H]1[C@@]24OO3` [Artesunate], in series [1] (MTD divided by MCD, route iv), the Primary therapeutic index worked out at 37. Also, in series [1] (MTD divided by MCureD, route iv), the Secondary therapeutic index is reported as 10. Further, the “MCureD (minimum curative dose)” value in series [1] (route iv) turned out to be 25.4 mg/kg. Further, under “rats, route iv”, the “MTD (maximum tolerated dose)” value is reported as 250 mg/kg.

In series [2], `COc1cc(NC(C)CCCN)c2ncccc2c1` (stereo not shown) [Primaquine, reference compound] yielded an IC50 of 76 nM.

Broadly, the IC50 is the point on the concentration scale where inhibition reaches its midpoint. As a reminder, the ED50 is the dose at which the effect has come halfway, by size or by number of responders.
